{
  "source": "paper PMC6433934",
  "about": "“Preclinical Evaluation of Bispecific Adaptor Molecule Controlled Folate Receptor CAR-T Cell Therapy With Special Focus on Pediatric Malignancies” (Frontiers in Oncology, 2019)",
  "key": {"HOS-FRα": {"tested_on": "HOS-FRα", "assay": "EC17 dose response, co-culture with E2-CAR-T cells, LDH specific lysis", "format": "cell-based, human", "from_the_text": "(§1) To investigate EC17 CAM action in vitro, pure EGFRt-sorted CD4 and CD8 CAR-T cells were admixed in a 1:1 ratio and matching mock-transduced T cells were included per experimental design. Other than FR+/- isogenic pairs of AML and osteosarcoma cell lines, we added KB, MDA-MB-231 and OV90 to represent different histological tumor types and FR expression levels. All FR+ target cell lines were subjected to a direct ^3H-FA binding assay to quantitate the number of FR molecules bound/cell ([38]). Prior to co-culture experiments, cryopreserved CAR-T cells were allowed to recover for 2–3 days in T cell culture medium. All effector and target cells were pre-washed with FFRPMI to remove any exogenous FA that could compete against EC17. Short-term co-culture studies of ≤ 3 days were carried out in FFRPMI without adding any exogenous cytokines.\n(§2) For an EC17 dose response study, FR+ cancer cell lines (KB, MDA-MB-231, HOS-FRα, THP1-FRβ, OV90) were co-cultured with EGFRt-sorted E2-CAR-T cells at an effector-to-target (E/T) ratio of 1:1 in the presence of EC17 ranging from 0.1 pM to 100 μM in 10-fold increments. After 24 h of co-culture, supernatants were harvested to determine target cell killing by Promega's CytoTox 96® LDH assay kit and expressed as specific lysis (%) normalized to basal levels in the absence of EC17. To study the kinetics of T cell activation and FR correlation in vitro, co-cultures were carried out in FR+/- cell lines at varying E/T ratios (1:27, 1:9, 1:3, 1:1, 3:1) in the continuous presence of 10 nM EC17. The kinetics of target cell killing (i.e., % specific lysis) were quantified after 16 and 48 h of co-culture and normalized to basal levels in the absence of EC17 at defined E/T ratios. Meanwhile, a portion of the supernatants was taken after 44 h of co-culture for measurement of IFNγ, IL-2, and TNFα. The LEGENDplex™ human Th1 cytokine panel (BioLegend, San Diego, CA) was used to determine CAR-T cell derived cytokines."}, "KB": {"tested_on": "KB", "assay": "EC17 dose response, co-culture with E2-CAR-T cells, LDH specific lysis", "format": "cell-based, human", "details": "E/T 1:1, 24 h co-culture", "from_the_text": "as §1, §2"}, "MDA-MB-231": {"tested_on": "MDA-MB-231", "assay": "EC17 dose response, co-culture with E2-CAR-T cells, LDH specific lysis", "format": "cell-based, human", "details": "MDA-MB-231, E/T 1:1, 24 h co-culture", "from_the_text": "as §1, §2"}, "THP1-FRβ": {"tested_on": "THP1-FRβ", "assay": "EC17 dose response, co-culture with E2-CAR-T cells, LDH specific lysis", "format": "cell-based, human", "from_the_text": "as §1, §2"}, "OV90": {"tested_on": "OV90", "assay": "EC17 dose response, co-culture with E2-CAR-T cells, LDH specific lysis", "format": "cell-based", "details": "OV90, E/T 1:1, 24 h co-culture", "from_the_text": "as §1, with “Short-term co-culture studies of ≤ 3 days were carried out in FFRPMI without adding any exogenous cytokines.” left out\nFor an EC17 dose response study, FR+ cancer cell lines (KB, MDA-MB-231, HOS-FRα, THP1-FRβ, OV90) were co-cultured with EGFRt-sorted E2-CAR-T cells at an effector-to-target (E/T) ratio of 1:1 in the presence of EC17 ranging from 0.1 pM to 100 μM in 10-fold increments. After 24 h of co-culture, supernatants were harvested to determine target cell killing by Promega's CytoTox 96® LDH assay kit and expressed as specific lysis (%) normalized to basal levels in the absence of EC17. […] The kinetics of target cell killing (i.e., % specific lysis) were quantified after 16 and 48 h of co-culture and normalized to basal levels in the absence of EC17 at defined E/T ratios. […]"}, "HOS-143b": {"tested_on": "HOS-143b", "assay": "Kinetics of specific lysis at varying E/T ratios, 10 nM EC17", "format": "cell-based, human", "details": "10 nM EC17, E2-CAR-T cells, E/T 1:27 to 3:1, 16 and 48 h", "protocol": "as §2"}, "[1]": {"details": "Homo sapiens, EC17, E/T 1:1, 24 h co-culture, curve fitted up to 100 nM"}, "[2]": {"details": "Homo sapiens, curve fitted up to 100 nM"}},
  "data": [
    {"smiles": "Nc1nc2ncc(CNc3ccc(C(=O)NC(CCC(=O)NCCNC(=S)Nc4ccc(-c5c6ccc(=O)cc-6oc6cc(O)ccc56)c(C(=O)O)c4)C(=O)O)cc3)nc2c(=O)[nH]1", "note": "(centres unmarked) [EC17, FA-(γ)-ethylenediamine-FITC]", "values": [
      {"measurement": "Max. lysis", "setting": "HOS-FRα; E/T 1:1, 24 h co-culture", "result": 18, "unit": "%"},
      {"measurement": "EC50", "setting": "HOS-FRα; [1]", "result": 0.03, "unit": "nM"},
      {"measurement": "Max. lysis", "setting": "KB", "result": 11, "unit": "%"},
      {"measurement": "EC50", "setting": "KB; [2]", "result": 0.0053, "unit": "nM"},
      {"measurement": "EC50", "setting": "MDA-MB-231; [2]", "result": 0.0045, "unit": "nM"},
      {"measurement": "Max. lysis", "setting": "MDA-MB-231", "result": 45, "unit": "%"},
      {"measurement": "Max. lysis", "setting": "THP1-FRβ; E/T 1:1, 24 h co-culture", "result": 27, "unit": "%"},
      {"measurement": "EC50", "setting": "THP1-FRβ; [1]", "result": 0.015, "unit": "nM"},
      {"measurement": "EC50", "setting": "OV90; Homo sapiens, OV-90, curve fitted up to 100 nM", "result": 0.418, "unit": "nM"},
      {"measurement": "Max. lysis", "setting": "OV90", "result": 15, "unit": "%"},
      {"measurement": "specific lysis of FR-negative cells", "setting": "HOS-143b", "result": "essentially unharmed"}
    ]}
  ]
}
